Data as given in US20190008810A1, “METHOD FOR PREVENTION, TREATMENT AND ALLEVIATION OF INFECTIOUS DISEASES AND DISORDERS” (REPLICON HEALTH OY, priority 2016, published 2019).

Columns and labels:
[1] = system: IPA mice (conjunctival epithelium, lacrimal gland, goblet cells); assay: Intensified pathological attack (IPA) dry eye model in mice, Example 1a; format: in vivo; details: for decrease in the thickening of the conjunctiva compared to relevant control: 7-day IPA, statistically significant
Experimental: In this experiment, intensified pathological attacks towards the eye epithelium is used as a disease model for intensified infectious pressure. The protection of the DGA Activation is measured by inflammatory markers. Because the conjunctival epithelium faces outside environment, the conjunctiva was chosen as one important biomarker. In the following this dry eye disease (also known as keratoconjunctivitis sicca) model experiment is called as the intensified pathological attack model or IPA-model.
All animal experiments were carried out according to the Association for Research in Vision and Ophthalmology and the National Institute of Health (NIH) guidelines for the care and use of laboratory animals. The intensified pathological attack model (IPA-model) was induced to naïve seven-to-ten-week-old C57B1/B6J mice obtained from the vivarium at the University of Eastern Finland. In the experiment 4 cohorts of mice were tested, naïve wild-type mice with IPA (n=5), and IPA mice treated topically with either vehicle (n=5) or (topical) DGA (n=5), and additionally IPA treated mice with orally administered DGA with topical vehicle treatment (n=5). IPA was induced by a combination of scopolamine and exposure to a controlled adverse environment (low humidity, high temperature and high airflow for a period of 7 days) in the IPA-mice system. More detailed treatment and administrations were as follows: Group 1: Non-treated IPA mice, Group 2: IPA mice (topical application of PBS to one eye, the contralateral eye served as control), Group 3: IPA mice topical treatment with DGA (aqueous formulation to one eye, contralateral eye served as control), Group 4: IPA mice—systemic treatment with DGA (ad libitum with chow; topical application of PBS to one eye, the contralateral eye served as control).
The DGA Activation was induced be D-glyceric acid (in its calcium salt form). In the systemic administration, the DGA was mixed into chow ad libitum at the concentration of: 1) 65 mg/kg/day for the first 4 days, and at day 5 at the concentration of 130 mg/kg/day prior the dry-eye induction; 2) thereafter the concentration was 130 mg/kg/day for the whole follow-up period of 7 days. In the topical treatment, the DGA was administered topically, as aqueous formulation in PBS. […]
Tear volume was measured for groups 3 and 4 and later comparison results for group 2 were received. […] In addition, animals were monitored daily for general health status. The lacrimal glands were embedded into paraffin, sectioned, stained and analyzed for possible pathology.

[2] = system: rat primary optic nerve astrocytes; assay: Cell viability (MTT and LDH assays) of rat primary optic nerve astrocytes; format: cell-based
Experimental: For proving the efficacy of DGA Activation in reducing ROS in infectious disorders an in vitro study using rat primary optic nerve astrocytes has been conducted. […] As an important part of the study the cell viability was estimated 6 hours after tBHP administration by two methods, i.e. LDH and MTT assays. Cell viability was measured using the in-house MTT assay (of Experimentica Ltd., Finland) and CytoTox96 non-radioactive cytotoxicity assay (G1780, Promega) in response to oxidative stress primary optic nerve astrocytes. The production of reactive oxygen species (ROS) was measured using CellROX Green (Invitrogen) and isolate RNA in RNALater solution (Ambion). Prior study preparations to find suitable tBHP concentration: The astrocytes where seeded at 5000 cells per well and allowed to grow for 48 hrs to mimic the study. On day 2 the medium was removed and the cells were exposed to a dose response range of tBHP in fresh medium for 6 hrs. The MTT and LDH assay were performed to assess cell survival using the Victor microplate reader. The raw data was given to patent applicant for assessment. […] After 24 hrs the compounds were removed, and readded with new medium for 1 hr, prior to the administration of 85 μM tBHP (FIG. 3c). […]

[3] = system: primary human hepatocytes; assay: Net ROS generation in human primary hepatocytes; format: cell-based; details: donors
Experimental: D-glycerate is coded as RH013001 in the graph. […] ARE -activation happens when Nrf2 detaches from cytosolic KEAP1 enzyme and moves to nucleus (SCHEME B).
FIG. 13b: Gene Expression results from Primary Hepatocytes after 48 h+2 h of the DGA Activation vs. 0-control. […] Combined test for PGC-1a yielded P-value of some 10%. Primary human hepatocytes were purchased from Celsis In Vitro Technologies (1450 South Rolling Road Baltimore, Md. 21227, USA). Primary hepatocytes were received from three different post mortem human donators. […] This is also the case for DOO.

[4] = system: HO-1, GRHPR, PGC-1a and NRF1 pathway genes; assay: Gene expression in peripheral leukocytes after 4.5-day administration, Example 5b; format: in vivo, human
Experimental: FIG. 13a: In this 4.5-day experiment samples of peripheral leukocytes were collected from standard blood sample of S1 and S9 in fasting condition (0 h), and 1 hour (1 h) after taking 75 grams of glucose (Glutole, Biofile Pharma, 330 ml) for glucose tolerance test. After the collection of the blood samples the leukocytes were immediately separated, and after separation immediately lysed by stop solution and stored in freezer in line with the instructions by the service provider.
Gene expression was measured from those peripheral leukocyte (=white blood cells). Additionally, basal (=0-Control) gene expression of all genes was later measured for S1. This was done using a different gene expression method for genome wide sequencing.
The doses used were 250 mg taken twice a day, in the morning and before going to bed. The last DGA dose was double in size (some 8 mg/kg), and it was taken in the same morning as the collection of blood samples. Relatively high dose and 2.5 hours to measurement was chosen to see clearer dose response in gene expression from peripheral leukocytes.
In the FIG. 13a it is shown that UTPfsAEM gene expressions are activated markedly in peripheral leukocytes after 4.5 day DGA Activation compared to 0-control. The analysis of selected genes was conducted both in fasting conditions and 1 h after glucose intake (“fed” in FIG. 13a)) and in acute dosing, i.e. only 2.5 hours from last DGA dose.

O=C(O)[C@H](O)CO [DGA, D-glyceric acid]
number of goblet cells vs 0-controls ([1]; DGA activation groups vs 0-controls): No meaningful differences
lacrimal gland pathology (inflammation) ([1]; systemic (group 4) vs placebo 0-control): reduces inflammation statistically significantly
decrease in the thickening of the conjunctiva compared to relevant control ([1]; systemic, mixed with chow 130 mg/kg/day): ~20%
decrease in the thickening of the conjunctiva compared to relevant control ([1]; topical eye drops 30 μg/ml, 5 μL 4× daily): ~20%
cell viability after tBHP administration ([2]; 85 μM tBHP, 6 hrs): clearly higher
cell viability compared to 0-controls ([2]; in health (0 μM tBHP) and in disease state (85 μM tBHP)): increases in both
net ROS generation [3]: declined for both JGM and CDP statistically very significantly
GRHPR gene expression ([4]; fasting and fed, after 4.5 days): upregulated very significantly
HO-1 gene expression ([4]; fasting and fed, after 4.5 days, 2.5 hours from last dose): upregulated very significantly
genes related to PGC-1a and NRF1 pathways ([4]; fasting, after 4.5 days vs 0-control): activated statistically very significantly
increase of HO-1 expression ([4]; peripheral leukocytes in vivo): more than 100%
